Consider nine molecules from patent US20100249243A1, “NOVEL BETA-HYDROXYKETONES AND BETA-ALKOXYKETONES WITH ESTROGENIC ACTIVITY” (priority 2007, published 2010).

Assay [1] addresses T1, ERα (Homo sapiens, UniProt P03372).
T1 sequence (P03372 1-595): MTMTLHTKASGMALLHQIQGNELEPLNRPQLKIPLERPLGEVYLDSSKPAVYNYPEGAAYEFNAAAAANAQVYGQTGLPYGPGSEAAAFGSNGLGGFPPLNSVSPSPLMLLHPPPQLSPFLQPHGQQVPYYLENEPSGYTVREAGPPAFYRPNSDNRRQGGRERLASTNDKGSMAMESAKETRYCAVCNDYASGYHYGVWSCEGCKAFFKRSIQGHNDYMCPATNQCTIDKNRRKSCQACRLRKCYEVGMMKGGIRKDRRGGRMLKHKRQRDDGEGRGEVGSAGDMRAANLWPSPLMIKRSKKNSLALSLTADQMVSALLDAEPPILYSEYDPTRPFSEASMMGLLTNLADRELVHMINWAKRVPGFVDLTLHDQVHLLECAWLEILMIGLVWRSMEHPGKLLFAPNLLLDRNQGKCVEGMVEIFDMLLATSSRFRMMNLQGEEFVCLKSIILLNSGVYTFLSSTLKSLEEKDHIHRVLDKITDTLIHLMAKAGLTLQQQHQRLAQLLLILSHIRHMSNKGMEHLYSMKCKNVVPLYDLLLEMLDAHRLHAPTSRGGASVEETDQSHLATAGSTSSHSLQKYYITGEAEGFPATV
Nature of the assay: Competitive binding assay against [6,7-3H(N)]estradiol in transiently transfected COS-1 cells, ERα. Conditions: for IC50: ERα IC50 (median inhibition concentration), competition against labeled E2, COS-1 cells with pSG5-hERα, 2 hours at 37° C.; for ERα RBA (relative binding affinity): in comparison to E2 = 100.
Procedure: (§2) Relative binding affinities (RBA) were measured by a competitive assay against [6, 7-^3H(N)]estradiol (PerkinElmer) in transsiently transfected COS-1 cells. […] After 2 hours of incubation at 37° C. the medium was removed. The cells were removed from the wells to 150 μl of 1× phosphate buffered saline (PBS), transferred to Eppendorf tubes and centrifuged at 4° C. using 4000 g for 5 min, and then washed twice with 150 μl of PBS. The cell pellets were dissolved to 50 μl of 0.5M NaOH and incubated for 15 min at 56° C., after which the samples were transferred to liquid twinkle tubes and treated with 3 ml of OptiPhase HiSafe 3 twinkle solution (PerkinElmer).

Assay [2] addresses T1, ERα. Nature of the assay: ERα luciferase reporter (pERE2TATA-LUC) transactivation assay in transfected HEK293 cells. The note with it: 24 hours; for ERα receptor activation relative to 10 nM E2 corresponding 100: Table 1, sample concentration 10 μM, mean of at least three independent transfections, SEM typically <15%; for ERα in vitro activity (receptor activation relative to 10 nM E2): Table 2, previously published compounds, test compound 10 μM. On the set-up: expressed in transfected cells; host or cells: HEK293. It is filed as cell-based. The method, then:
(§1) All other reagents were of reagent grade from Sigma or Fluka. One day before transfection, HEK293 cells were seeded in 48-well plates (70×10^3 cells per well) in phenol-free Dulbecco's modified Eagle medium supplemented with 5% delipidated fetal bovine serum (Sigma) and antibiotics. After a medium change, the cells were transfected for 4 hours with 5 ng ERα or ERβ expression vector, 75 ng reporter plasmid pERE2TATA-LUC and 20 ng control plasmid pCMVβ by the calcium phosphate method. After transfection, the cells received fresh medium containing either vehicle (0.1% v/v) or test compound (10 μM). After 24 hours, the cells were washed, lysed and luciferase and β-galactosidase activities were determined from 20 μl of lysates with the Victor^2TM reader (PerkinElmer Wallac, Turku, Finland). […] The data are means±SEM of at least three independent transfections.
(Reporter assays use an easily measured gene product as a stand-in for the process of interest.)

Assay [3] deals with T2, ERβ (Homo sapiens, UniProt Q92731). Nature of the assay: ERβ luciferase reporter (pERE2TATA-LUC) transactivation assay in transfected HEK293 cells. It is filed as cell-based. Also on record: expressed in transfected cells; host or cells: HEK293. The note with it: for Emax at 10 µM: HEK293, 24 h; for ERβ in vitro activity (receptor activation relative to 10 nM E2): Table 2, previously published compounds, test compound 10 μM. The method, then: as §1
T2 sequence (Q92731 whole entry): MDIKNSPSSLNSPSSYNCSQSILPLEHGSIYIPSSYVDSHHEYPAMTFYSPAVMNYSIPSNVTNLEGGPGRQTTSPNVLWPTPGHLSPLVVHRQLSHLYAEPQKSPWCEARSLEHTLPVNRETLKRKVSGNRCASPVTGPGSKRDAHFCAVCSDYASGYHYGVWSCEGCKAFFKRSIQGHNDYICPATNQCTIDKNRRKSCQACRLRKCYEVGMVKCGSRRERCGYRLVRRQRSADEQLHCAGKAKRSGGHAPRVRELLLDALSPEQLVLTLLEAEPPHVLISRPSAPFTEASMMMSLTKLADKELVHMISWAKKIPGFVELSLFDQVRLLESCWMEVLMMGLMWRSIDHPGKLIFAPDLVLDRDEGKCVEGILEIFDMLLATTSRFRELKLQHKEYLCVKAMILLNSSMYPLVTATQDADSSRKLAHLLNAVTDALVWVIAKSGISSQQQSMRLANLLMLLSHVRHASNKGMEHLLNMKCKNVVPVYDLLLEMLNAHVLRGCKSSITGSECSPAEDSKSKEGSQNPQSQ

In assay [4] the target is T2, ERβ. As to the kind of experiment: Competitive binding assay against [6,7-3H(N)]estradiol in transiently transfected COS-1 cells, ERβ. The note with it: for IC50: ERβ IC50 (median inhibition concentration), competition against labeled E2, COS-1 cells with pSG5-hERβ, 2 hours at 37° C.; for ERβ RBA (relative binding affinity): in comparison to E2 = 100.
Procedure: as §2
[5] abbreviates: read-out: ERβ receptor activation relative to 10 nM E2 corresponding 100, Table 1, sample concentration 10 μM, mean of at least three independent transfections, SEM typically <15%.
The mark [6] stands for this setting: read-out: ERβ in vitro activity (receptor activation relative to 10 nM E2), Table 2, previously published compounds, test compound 10 μM.

What is called IC50 is the midpoint of a concentration-inhibition curve. The low end stands for greater potency, the high end for weaker potency.

Where two headings read alike, the source gives them in different places.

In the case of `O=C(CCCc1ccc(O)cc1)CC(O)c1ccccc1` (single isomer, unassigned) [Compound 34a, 1-Hydroxy-6-(4-hydroxy-phenyl)-1-phenyl-hexan-3-one], in assay [1], the IC50 is 0.9 nM and the “ERα RBA (relative binding affinity)” value came to 217.8%. The “ERα receptor activation relative to 10 nM E2 corresponding 100” value in assay [2] came out at 139.2%. The Emax at 10 µM in assay [3] (setting [5]) was 170%. For the same molecule, in assay [4], the IC50 is 3.4 nM and the “ERβ RBA (relative binding affinity)” value came to 57.65%.

With `O=C(CCCc1ccc(O)cc1)CC(O)c1ccccc1` (single isomer, unassigned) [Compound 34b, 1-Hydroxy-6-(4-hydroxy-phenyl)-1-phenyl-hexan-3-one], in assay [1], the IC50 is 2.13 nM and the “ERα RBA (relative binding affinity)” value is 92.02%. Further, in assay [2], the “ERα receptor activation relative to 10 nM E2 corresponding 100” value came out at 140.0%. The “ERβ receptor activation relative to 10 nM E2 corresponding 100” value in assay [3] (Table 1, sample concentration 10 μM, 24 hours, mean of at least three independent transfections, SEM typically <15%) is reported as 155.3%. Moreover, in assay [4], the IC50 came out at 10.5 nM and the “ERβ RBA (relative binding affinity)” value is 18.67%.

Regarding `O=C(CCCc1ccccc1)CC(O)c1ccccc1` (single isomer, unassigned) [Compound 59a, 1-Hydroxy-1,6-diphenyl-hexan-3-one], in assay [1], the concentration for half-maximal inhibition (IC50) was determined as 1700 nM and the “ERα RBA (relative binding affinity)” value is 0.115%. The “ERα in vitro activity (receptor activation relative to 10 nM E2)” value in assay [2] turned out to be 91.4%. Also, the “ERβ in vitro activity (receptor activation relative to 10 nM E2)” value in assay [3] (24 hours) stood at 147.3%. Also, in assay [4], the half-inhibitory concentration (IC50) came out at 1090 nM and the “ERβ RBA (relative binding affinity)” value stood at 0.180%.

Turning to `O=C(CCCc1ccccc1)CC(O)c1ccccc1` (single isomer, unassigned) [Compound 59b, 1-Hydroxy-1,6-diphenyl-hexan-3-one], in assay [1], the IC50 was 2170 nM and the “ERα RBA (relative binding affinity)” value is given as 0.090%. Besides, the “ERα in vitro activity (receptor activation relative to 10 nM E2)” value in assay [2] turned out to be 59.3%. Besides, the “ERβ in vitro activity (receptor activation relative to 10 nM E2)” value in assay [3] (24 hours) came to 28.2%. For the same molecule, in assay [4], the IC50 is 11000 nM and the “ERβ RBA (relative binding affinity)” value came out at 0.018%.

In the case of `O=C(CCc1ccc(O)cc1)CC(O)Cc1ccccc1` (stereo not shown) [Compound 31ab, 5-Hydroxy-1-(4-hydroxy-phenyl)-6-phenyl-hexan-3-one], in assay [1], the IC50 was 7900 nM and the “ERα RBA (relative binding affinity)” value is on record as 0.025%. For the same molecule, the “ERα receptor activation relative to 10 nM E2 corresponding 100” value in assay [2] came to 55.0%. In assay [3] (setting [5]), the Emax at 10 µM is 107%. For the same molecule, in assay [4], the IC50 came to 1250 nM and the “ERβ RBA (relative binding affinity)” value was 0.157%.

`CC(O)(CC(=O)CCCc1ccccc1)c1ccccc1` (stereo not shown) [Compound 36ab, 6-Hydroxy-1,6-diphenyl-heptan-4-one]: in assay [1], the IC50 amounted to 810 nM and the “ERα RBA (relative binding affinity)” value came out at 0.242%. For the same molecule, in assay [2], the “ERα receptor activation relative to 10 nM E2 corresponding 100” value was found to be 83.3%. In addition, in assay [3] (setting [5]), the Emax at 10 µM was 15.1%. In addition, in assay [4], the IC50 came to 2050 nM and the “ERβ RBA (relative binding affinity)” value stood at 0.096%.

`O=C(CCCc1ccc(O)cc1)CC(O)Cc1ccccc1` (stereo not shown) [Compound 40ab, 2-Hydroxy-7-(4-hydroxy-phenyl)-1-phenyl-heptan-4-one]: in assay [1], the half-inhibitory concentration (IC50) was 105 nM and the “ERα RBA (relative binding affinity)” value came to 1.867%. Besides, the “ERα receptor activation relative to 10 nM E2 corresponding 100” value in assay [2] came out at 105.2%. The Emax at 10 µM in assay [3] (setting [5]) came out at 82.3%. In addition, in assay [4], the IC50 was 1080 nM and the “ERβ RBA (relative binding affinity)” value is 0.181%.

For the molecule `COC(CC(=O)c1ccccc1)Cc1ccccc1` (stereo not shown) [Compound 61ab, 3-Methoxy-1,4-diphenyl-butan-1-one], in assay [2], the “ERα in vitro activity (receptor activation relative to 10 nM E2)” value is listed as 0.3%. Also, the Emax at 10 µM in assay [3] (setting [6]) came out at 18.4%.

Turning to `COC(CCc1ccccc1)CC(=O)c1ccccc1` (stereo not shown) [Compound 62ab, 3-Methoxy-1,5-diphenyl-pentan-1-one], in assay [2], the “ERα in vitro activity (receptor activation relative to 10 nM E2)” value was 38.1%. For the same molecule, the Emax at 10 µM in assay [3] (setting [6]) came to 28.8%.
